In patent US20210040089A1, “KRAS MUTANT PROTEIN INHIBITORS” (Jacobio Pharmaceuticals Co., Ltd., priority 2019, published 2021):

Assays:
[1] = tested on: NCI-H358 cells express KRAS G12C; experiment: Cell growth inhibition assay (CCK-8); format: cell-based; conditions: Homo sapiens, 144 h; NCI-H358, 6 days incubation
Procedure: 3. Cell Growth inhibition assay
NCI-H358 cells express KRAS G12C were cultured in RPMI 1640 medium (Gibco) containing 10% fetal bovine serum (Gibco). Cells in culture medium were plated in 96-well plates at a concentration of 3000 cells/well ([…]) and allowed to attach overnight. The next day, compounds were diluted in culture medium and added to the plates. After 6 days incubation in a 37° C./5% CO2 cell incubator, the medium was removed, then 100 μL of 1×CCK-8 (MCE) in culture medium was added in each well. The plates were incubated 1.5-2 hours in a 37° C./5% CO2 cell incubator. OD450 signals were read on Tecan Spark multimode microplate reader and analyzed using a 4-parameter logistic model to calculate IC50 values.

[2] = molecular target: T1, KRAS G12C (Homo sapiens, UniProt P01116, G12C); experiment: SOS1 catalyzed nucleotide exchange assay (TR-FRET); format: biochemical; conditions: GDP-loaded HIS-KRAS(G12C), 1 hour pre-incubation with compound
T1 construct: HIS-KRAS (G12C, aa 2-185, Sino biological); purchased Sino biological
T1 sequence (P01116 2-185 isoform P01116-2 G12C): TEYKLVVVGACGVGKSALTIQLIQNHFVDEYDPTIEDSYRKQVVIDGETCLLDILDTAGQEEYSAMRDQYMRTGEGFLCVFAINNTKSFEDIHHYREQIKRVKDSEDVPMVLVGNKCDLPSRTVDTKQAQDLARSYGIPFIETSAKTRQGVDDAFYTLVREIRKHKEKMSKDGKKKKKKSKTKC
Procedure: 1. SOS1 Catalyzed Nucleotide Exchange Assay
HIS-KRAS (G12C, aa 2-185, Sino biological) was diluted to […] EDTA buffer (20 mM HEPES, pH 7.4, 50 mM NaCl, 10 mM EDA, 0.01% (v/v) Tween-20) and incubated for 30 min at 25° C. The EDTA pretreated HIS-KRAS(G12C) was diluted to 12 nM in assay buffer (25 mM HEPES, pH 7.4, 120 mM NaCl, 5 mM MgCl2, 1 mM DTI, 0.01% (v/v) Tween 20, 0.1% (w/v) BSA) containing 120 nM GDP(Sigma) and Mab Anti 6HIS-Tb cryptate Gold(Cisbio) and incubated for 1 hour at 25° C. to prepare GDP-loaded HIS-KRAS(G12C). The GDP-loaded HIS-KRAS(G12C) was pre-incubation with diluted compounds in a 384-well plate (Greiner) for 1 hour, then purified SOS 1ExD (Flag tag, aa 564-1049) and BODIPY™FL GTP (Invitrogen) were added to the assay wells (Final concentration: 3 nM HIS-KRAS(G12C), 2 μM SOS1 ExD, 80 nM BODIPY™FL GTP, 21 ng/mL MAb Anti 6HS-Tb cryptate Gold) and incubated for 4 hours at 25° C. TR-FRET signals were then read on Tecan Spark multimode microplate reader. The parameters were F486: Excitation 340 (35) nm, Emission 486 (10) nm, Lag time 100 μs, Integration time […]; F515: Excitation 340 (35) nm, Emission 515 (10) nm, Lag time […], Integration time 200 s. TR-FRET ratios for each individual wells were calculated by equation: TR-FRET ratio=(Signal F515/Signal F486)*10000. Then the data were analyzed using a 4-parameter logistic model to calculate IC50 values.

[3] = tested on: Phospho-ERK1/2(THR202/TYR204) in NCI-H358 cells express KRAS G12C; experiment: Phospho-ERK1/2(THR202/TYR204) HTRF assay; format: cell-based; conditions: Homo sapiens; NCI-H358, 2 hours incubation; read-out: p-ERK inhibition in NCI-H358 IC50
Procedure: NCI-H358 cells express KRAS G12C were cultured in RPMI 1640 medium (Gibco) containing 10% fetal bovine serum (Gibco). Cells in culture medium were plated in 96-well plates at a concentration of 40,000 cells/well and allowed to attach overnight. The next day, culture medium was removed and added compounds diluted in assay medium (RPMI 1640, 0.1% EFBS). After 2 hours incubation in a 37° C./5% CO2 cell incubator, the assay medium was removed, then 50 μL of 1× supplemented lysis buffer (Cisbio) was added and the plates were incubated at 25° C. for 45 min with shaking. 10 μL of cell lysates from the 96-well plates were transferred to a 384-well plate (Greiner) containing 2.5 µL/well HTRF® pre-mixed antibodies (Cisbio 64AERPEH).
Incubate 4 hours at 25° C. and then read HTRF signals on Tecan Spark multimode microplate reader. The data were analyzed using a 4-parameter logistic model to calculate IC50 values.

Row | SMILES | IC50 [1] | IC50 [2] | IC50 [3]
1 | C=CC(=O)N1CCN(c2nc(OCC3(CN(C)C)CC3)nc3c2CCN(c2c(C)ccc4[nH]ncc24)C3)CC1CC#N (stereo not shown) [Compound 3, 2-(1-acryloyl-4-(2-((1-((dimethylamino)methyl)cyclopropyl)methoxy)-7-(5-methyl-1H-indazol-4-yl)-5,6,7,8-tetrahydropyrido[3,4-d]pyrimidin-4-yl)piperazin-2-yl)acetonitrile] | 408 nM | 12.1 nM | 453 nM
2 | C=CC(=O)N1CCN(c2nc(OCC3(CN4CCCC4)CC3)nc3c2CCN(c2cccc4ccccc24)C3)CC1CC#N (stereo not shown) [Compound 4, 2-(1-acryloyl-4-(7-(naphthalen-1-yl)-2-((1-(pyrrolidin-1-ylmethyl)cyclopropyl)methoxy)-5,6,7,8-tetrahydropyrido[3,4-d]pyrimidin-4-yl)piperazin-2-yl)acetonitrile] | 93.3 nM | 18.9 nM | 97.7 nM
3 | C=CC(=O)N1CCN(c2nc(OCC3CCCC(N(C)C)C3)nc3c2CCN(c2cccc4cccc(C)c24)C3)CC1CC#N (stereo not shown) [Compound 5, 2-(1-acryloyl-4-(2-((3-(dimethylamino)cyclohexyl)methoxy)-7-(8-methylnaphthalen-1-yl)-5,6,7,8-tetrahydropyrido[3,4-d]pyrimidin-4-yl)piperazin-2-yl)acetonitrile] | 174 nM | 19.6 nM | 330 nM
4 | C=CC(=O)N1CCN(c2nc(OCC3CCCC(N(C)C)C3)nc3c2CCN(c2ccccc2C(F)(F)F)C3)CC1CC#N (stereo not shown) [Compound 6, 2-(1-acryloyl-4-(2-((3-(dimethylamino)cyclohexyl)methoxy)-7-(2-(trifluoromethyl)phenyl)-5,6,7,8-tetrahydropyrido[3,4-d]pyrimidin-4-yl)piperazin-2-yl)acetonitrile] | 580 nM | 178 nM | 592 nM
5 | C=CC(=O)N1CCN(c2nc(OCC3CC(N(C)C)C3)nc3c2CCN(c2cccc4ccccc24)C3)CC1CC#N (stereo not shown) [Compound 8, 2-(1-acryloyl-4-(2-((3-(dimethylamino)cyclobutyl)methoxy)-7-(naphthalen-1-yl)-5,6,7,8-tetrahydropyrido[3,4-d]pyrimidin-4-yl)piperazin-2-yl)acetonitrile] | 3470 nM | 408 nM | 769 nM
6 | C=CC(=O)N1CCN(c2nc(OC3CCCC(N(C)C)C3)nc3c2CCN(c2cccc4ccccc24)C3)CC1CC#N (stereo not shown) [Compound 10, 2-(1-acryloyl-4-(2-((3-(dimethylamino)cyclohexyl)oxy)-7-(naphthalen-1-yl)-5,6,7,8-tetrahydropyrido[3,4-d]pyrimidin-4-yl)piperazin-2-yl)acetonitrile] | 940 nM | 1740 nM | 720 nM
7 | C=CC(=O)N1CCN(c2nc(OCC3(N(C)C)CC3)nc3c2CCN(c2cccc4ccccc24)C3)CC1CC#N (stereo not shown) [Compound 12, 2-(1-acryloyl-4-(2-((1-(dimethylamino)cyclopropyl)methoxy)-7-(naphthalen-1-yl)-5,6,7,8-tetrahydropyrido[3,4-d]pyrimidin-4-yl)piperazin-2-yl)acetonitrile] | 645 nM | 176 nM | 518 nM
8 | C=CC(=O)N1CCN(c2nc(OCC3CCCC3N(C)C)nc3c2CCN(c2cccc4ccccc24)C3)CC1CC#N (stereo not shown) [Compound 14, 2-(1-acryloyl-4-(2-((2-(dimethylamino)cyclopentyl)methoxy)-7-(naphthalen-1-yl)-5,6,7,8-tetrahydropyrido[3,4-d]pyrimidin-4-yl)piperazin-2-yl)acetonitrile] | 217 nM | 54.1 nM | 234 nM
9 | C=CC(=O)N1CCN(c2nc(OCC3CCCC(N(C)C)C3)nc3c2CCN(c2cccc4ccccc24)C3)CC1CC#N (stereo not shown) [Compound 15, 2-(1-acryloyl-4-(2-((3-(dimethylamino)cyclohexyl)methoxy)-7-(naphthalen-1-yl)-5,6,7,8-tetrahydropyrido[3,4-d]pyrimidin-4-yl)piperazin-2-yl)acetonitrile] | 497 nM | 333 nM | 876 nM
10 | C=CC(=O)N1CCN(c2nc(OCC3CCC(N(C)C)C3)nc3c2CCN(c2cccc4ccccc24)C3)CC1CC#N (stereo not shown) [Compound 17, 2-(1-acryloyl-4-(2-((3-(dimethylamino)cyclopentyl)methoxy)-7-(naphthalen-1-yl)-5,6,7,8-tetrahydropyrido[3,4-d]pyrimidin-4-yl)piperazin-2-yl)acetonitrile] | 299 nM | 83.6 nM | 312 nM
11 | C=CC(=O)N1CCN(c2nc(OCC3CCCCC3N(C)C)nc3c2CCN(c2cccc4ccccc24)C3)CC1CC#N (stereo not shown) [Compound 18, 2-(1-acryloyl-4-(2-((2-(dimethylamino)cyclohexyl)methoxy)-7-(naphthalen-1-yl)-5,6,7,8-tetrahydropyrido[3,4-d]pyrimidin-4-yl)piperazin-2-yl)acetonitrile] | 507 nM | 428 nM | 879 nM
12 | C=CC(=O)N1CCN(c2nc(OCC3(N(C)C)CC3)nc3c2CCN(c2cccc4cccc(C)c24)C3)CC1CC#N (stereo not shown) [Compound 20, 2-(1-acryloyl-4-(2-((1-(dimethylamino)cyclopropyl)methoxy)-7-(8-methylnaphthalen-1-yl)-5,6,7,8-tetrahydropyrido[3,4-d]pyrimidin-4-yl)piperazin-2-yl)acetonitrile] | 102 nM | 19.4 nM | 127 nM
13 | C=CC(=O)N1CCN(c2nc(OC[C@@H]3CC[C@H](N(C)C)C3)nc3c2CCN(c2cccc4cccc(C)c24)C3)CC1CC#N (stereo partly drawn) [Compound 22, 2-(1-acryloyl-4-(2-(((1R,3S)-3-(dimethylamino)cyclopentyl)methoxy)-7-(8-methylnaphthalen-1-yl)-5,6,7,8-tetrahydropyrido[3,4-d]pyrimidin-4-yl)piperazin-2-yl)acetonitrile] | 65.2 nM | 10.7 nM | 96.6 nM
14 | C=CC(=O)N1CCN(c2nc(OCC3CCCC3N(C)C)nc3c2CCN(c2cccc4cccc(C)c24)C3)CC1CC#N (stereo not shown) [Compound 23, 2-(1-acryloyl-4-(2-((2-(dimethylamino)cyclopentyl)methoxy)-7-(8-methylnaphthalen-1-yl)-5,6,7,8-tetrahydropyrido[3,4-d]pyrimidin-4-yl)piperazin-2-yl)acetonitrile] | 66.8 nM | 9.45 nM | 112 nM
15 | C=CC(=O)N1CCN(c2nc(OCC3CCCC3N(C)C)nc3c2CCN(c2cccc(C)c2C)C3)CC1CC#N (stereo not shown) [Compound 28, 2-(1-acryloyl-4-(2-((2-(dimethylamino)cyclopentyl)methoxy)-7-(2,3-dimethylphenyl)-5,6,7,8-tetrahydropyrido[3,4-d]pyrimidin-4-yl)piperazin-2-yl)acetonitrile] | 138 nM | 24.1 nM | 
16 | C=CC(=O)N1CCN(c2nc(OCC3(CN4CCOCC4)CC3)nc3c2CCN(c2cccc(Cl)c2C(F)(F)F)C3)CC1CC#N (stereo not shown) [Compound 40, 2-(1-acryloyl-4-(7-(3-chloro-2-(trifluoromethyl)phenyl)-2-((1-(morpholinomethyl)cyclopropyl)methoxy)-5,6,7,8-tetrahydropyrido[3,4-d]pyrimidin-4-yl)piperazin-2-yl)acetonitrile] | 360 nM | 23.8 nM | 
